Source: patent publication US8404643B2, “Metastin derivatives and use thereof” (priority 2005, dated 2013)
Square brackets hold non-standard residues; d marks the D form. Peptide text beside a SMILES is read from it. Phe(βS-OH) = N[C@H](C(=O)O)[C@@H](O)c1ccccc1; Phe(4-F) = N[C@@H](Cc1ccc(F)cc1)C(=O)O; Phe(2-F) = N[C@@H](Cc1ccccc1F)C(=O)O; Arg(Me) = CNC(=N)NCCC[C@H](N)C(=O)O; His(π-Me) = Cn1cncc1C[C@H](N)C(=O)O; Hyp = O=C(O)[C@@H]1C[C@@H](O)CN1; dDap = NC[C@@H](N)C(=O)O; dNMeA = CN[C@H](C)C(=O)O; Aze = O=C(O)[C@@H]1CCN1; Aib = CC(C)(N)C(=O)O; azaGly = NNC(=O)O; βAla = NCCC(=O)O

target: T1, hOT7T175 (Homo sapiens, UniProt Q969F8); assay: Assay for intracellular Ca ion level-increasing activity using FLIPR; format: cell-based; conditions: hOT7T175/CHO cells, relative to Metastin (1-54)
T1 construct: expressed in transfected cells
T1 sequence (Q969F8 whole entry L364H): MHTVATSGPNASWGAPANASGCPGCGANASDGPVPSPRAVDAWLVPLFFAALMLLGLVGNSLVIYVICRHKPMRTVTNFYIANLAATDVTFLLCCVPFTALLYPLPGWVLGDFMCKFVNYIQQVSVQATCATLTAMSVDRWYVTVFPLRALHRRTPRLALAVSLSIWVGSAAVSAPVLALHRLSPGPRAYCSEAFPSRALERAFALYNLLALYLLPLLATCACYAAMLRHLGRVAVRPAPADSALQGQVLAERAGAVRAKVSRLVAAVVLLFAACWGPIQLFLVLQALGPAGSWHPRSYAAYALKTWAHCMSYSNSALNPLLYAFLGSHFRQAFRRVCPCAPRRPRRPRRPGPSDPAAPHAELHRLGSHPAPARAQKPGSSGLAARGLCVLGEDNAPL
In short: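 CHO/dhfr− cells stably transfected with hOT7T175, selected for high metastin response, loaded with Fluo3-AM for 1 h at 37 °C in HANKS/HBSS (pH 7.4) with probenecid. Peptides were diluted from 1×10^−3 M DMSO stock into HANKS/HBSS with 2.5 mM probenecid, 0.2% BSA, 0.1% CHAPS; intracellular Ca rise read by FLIPR.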

Compared with CNC(=N)NCCC[C@H](NC(=O)[C@H](CC(C)C)NC(=O)NNC(=O)[C@H](Cc1ccccc1)NC(=O)[C@@H](NC(=O)[C@H](CC(N)=O)NC(=O)[C@@H](C)N(C)C(=O)[C@@H](Cc1ccc(O)cc1)NC(C)=O)[C@@H](C)O)C(=O)N[C@@H](Cc1c[nH]c2ccccc12)C(N)=O [Compound No. 732, Ac-D-Tyr-D-NMeAla-Asn-Thr-Phe-AzaGly-Leu-Arg(Me)-Trp-NH2] (Ac-[dY][dNMeA]NTF[azaGly]L[Arg(Me)]W-NH2), CNC(=N)NCCC[C@H](NC(=O)[C@H](CC(C)C)NC(=O)NNC(=O)[C@H](Cc1ccccc1)NC(=O)[C@@H](NC(=O)[C@H](CC(N)=O)NC(=O)[C@H](CCCCN)NC(=O)[C@@H](Cc1ccc(O)cc1)NC(C)=O)[C@@H](C)O)C(=O)N[C@@H](Cc1c[nH]c2ccccc12)C(N)=O [Compound No. 745, Ac-D-Tyr-Lys-Asn-Thr-Phe-AzaGly-Leu-Arg(Me)-Trp-NH2] (Ac-[dY]KNTF[azaGly]L[Arg(Me)]W-NH2) is lower in “Specific Activity: intracellular Ca ion level-increasing activity [specific activity to Metastin (1-54)]” value: 3.2 for the first, 3.0 for the second.

Going from CNC(=N)NCCC[C@H](NC(=O)[C@H](CC(C)C)NC(=O)NNC(=O)[C@H](Cc1ccccc1)NC(=O)[C@@H](NC(=O)[C@H](CC(N)=O)NC(=O)[C@H](Cc1cncn1C)NC(=O)[C@@H](Cc1ccc(O)cc1)NC(C)=O)[C@@H](C)O)C(=O)N[C@@H](Cc1c[nH]c2ccccc12)C(N)=O [Compound No. 773, Ac-D-Tyr-His(3Me)-Asn-Thr-Phe-AzaGly-Leu-Arg(Me)-Trp-NH2] (Ac-[dY][His(π-Me)]NTF[azaGly]L[Arg(Me)]W-NH2) to CNC(=N)NCCC[C@H](NC(=O)[C@H](CC(C)C)NC(=O)NNC(=O)[C@H](Cc1ccccc1)NC(=O)[C@@H](NC(=O)[C@H](CC(N)=O)NC(=O)[C@@H](Cc1cnc[nH]1)NC(=O)[C@@H](Cc1ccc(O)cc1)NC(C)=O)[C@@H](C)O)C(=O)N[C@@H](Cc1c[nH]c2ccccc12)C(N)=O [Compound No. 739, Ac-D-Tyr-D-His-Asn-Thr-Phe-AzaGly-Leu-Arg(Me)-Trp-NH2] (Ac-[dY][dH]NTF[azaGly]L[Arg(Me)]W-NH2), the “Specific Activity: intracellular Ca ion level-increasing activity [specific activity to Metastin (1-54)]” value rises from 1.1 to 1.6.

First: CNC(=N)NCCC[C@H](NC(=O)[C@H](CC(C)C)NC(=O)NNC(=O)[C@H](Cc1ccccc1)NC(=O)CNC(=O)[C@H](CC(N)=O)NC(=O)[C@@H]1C[C@@H](O)CN1C(=O)[C@@H](Cc1ccc(O)cc1)NC(C)=O)C(=O)N[C@@H](Cc1c[nH]c2ccccc12)C(N)=O [Compound No. 813, Ac-D-Tyr-Hyp-Asn-Gly-Phe-AzaGly-Leu-Arg(Me)-Trp-NH2] (Ac-[dY][Hyp]NGF[azaGly]L[Arg(Me)]W-NH2)
Second: CNC(=N)NCCC[C@H](NC(=O)[C@H](CC(C)C)NC(=O)NNC(=O)[C@H](Cc1ccc(F)cc1)NC(=O)[C@@H](NC(=O)[C@H](CC(N)=O)NC(=O)[C@H](CCC(=O)O)NC(=O)[C@@H](Cc1ccc(O)cc1)NC(C)=O)[C@@H](C)O)C(=O)N[C@@H](Cc1c[nH]c2ccccc12)C(N)=O [Compound No. 788, Ac-D-Tyr-Glu-Asn-Thr-Phe(4F)-AzaGly-Leu-Arg(Me)-Trp-NH2] (Ac-[dY]ENT[Phe(4-F)][azaGly]L[Arg(Me)]W-NH2)
The “Specific Activity: intracellular Ca ion level-increasing activity [specific activity to Metastin (1-54)]” value of the first is lower: 0.5 for the first, 2.7 for the second.

First: CNC(=N)NCCC[C@H](NC(=O)[C@H](CC(C)C)NC(=O)NNC(=O)[C@H](Cc1ccccc1)NC(=O)[C@@H](NC(=O)[C@H](CC(N)=O)NC(=O)CCNC(=O)[C@@H](Cc1ccc(O)cc1)NC(C)=O)[C@@H](C)O)C(=O)N[C@@H](Cc1c[nH]c2ccccc12)C(N)=O [Compound No. 747, Ac-D-Tyr-β-Ala-Asn-Thr-Phe-AzaGly-Leu-Arg(Me)-Trp-NH2] (Ac-[dY][βAla]NTF[azaGly]L[Arg(Me)]W-NH2)
Second: CNC(=N)NCCC[C@H](NC(=O)[C@H](CC(C)C)NC(=O)NNC(=O)[C@H](Cc1ccccc1)NC(=O)[C@@H](NC(=O)[C@H](CC(N)=O)NC(=O)[C@@H](CN)NC(=O)[C@@H](Cc1ccc(O)cc1)NC(C)=O)[C@@H](C)O)C(=O)N[C@@H](Cc1c[nH]c2ccccc12)C(N)=O [Compound No. 736, Ac-D-Tyr-D-Dap-Asn-Thr-Phe-AzaGly-Leu-Arg(Me)-Trp-NH2] (Ac-[dY][dDap]NTF[azaGly]L[Arg(Me)]W-NH2)
The “Specific Activity: intracellular Ca ion level-increasing activity [specific activity to Metastin (1-54)]” value of the first is higher: 2.6 for the first, 2.4 for the second.

First: Ac-D-Tyr-D-Trp-Asn-D-Pro-Phe-AzaGly-Leu-Arg(Me)-Trp-NH2 (Ac-[dY][dW]N[dP]F[azaGly]L[Arg(Me)]W-NH2; SMILES CNC(=N)NCCC[C@H](NC(=O)[C@H](CC(C)C)NC(=O)NNC(=O)[C@H](Cc1ccccc1)NC(=O)[C@H]1CCCN1C(=O)[C@H](CC(N)=O)NC(=O)[C@@H](Cc1c[nH]c2ccccc12)NC(=O)[C@@H](Cc1ccc(O)cc1)NC(C)=O)C(=O)N[C@@H](Cc1c[nH]c2ccccc12)C(N)=O) [Compound No. 719]
Second: CNC(=N)NCCC[C@H](NC(=O)[C@H](CC(C)C)NC(=O)NNC(=O)[C@H](Cc1ccccc1)NC(=O)[C@@H](NC(=O)[C@H](CC(N)=O)NC(=O)[C@@H](CO)NC(=O)[C@@H](Cc1ccc(O)cc1)NC(C)=O)[C@@H](C)O)C(=O)N[C@@H](Cc1c[nH]c2ccccc12)C(N)=O [Compound No. 737, Ac-D-Tyr-D-Ser-Asn-Thr-Phe-AzaGly-Leu-Arg(Me)-Trp-NH2] (Ac-[dY][dS]NTF[azaGly]L[Arg(Me)]W-NH2)
The “Specific Activity: intracellular Ca ion level-increasing activity [specific activity to Metastin (1-54)]” value of the first is higher: 3.8 for the first, 3.0 for the second.

Compared with CNC(=N)NCCC[C@H](NC(=O)[C@H](CC(C)C)NC(=O)NNC(=O)[C@H](Cc1ccccc1F)NC(=O)[C@@H](NC(=O)[C@H](CC(N)=O)NC(=O)C(C)(C)NC(=O)[C@@H](Cc1ccc(O)cc1)NC(C)=O)[C@@H](C)O)C(=O)N[C@@H](Cc1c[nH]c2ccccc12)C(N)=O [Compound No. 784, Ac-D-Tyr-Aib-Asn-Thr-Phe(2F)-AzaGly-Leu-Arg(Me)-Trp-NH2] (Ac-[dY][Aib]NT[Phe(2-F)][azaGly]L[Arg(Me)]W-NH2), CNC(=N)NCCC[C@H](NC(=O)[C@H](CC(C)C)NC(=O)NNC(=O)[C@H](Cc1ccccc1)NC(=O)[C@@H](NC(=O)[C@H](CC(N)=O)NC(=O)[C@@H]1C[C@@H](O)CN1C(=O)[C@H](Cc1ccc(O)cc1)NC(C)=O)[C@@H](C)O)C(=O)N[C@@H](Cc1c[nH]c2ccccc12)C(N)=O [Compound No. 899, Ac-Tyr-Hyp-Asn-Thr-Phe-AzaGly-Leu-Arg(Me)-Trp-NH2] (Ac-Y[Hyp]NTF[azaGly]L[Arg(Me)]W-NH2) is lower in “Specific Activity: intracellular Ca ion level-increasing activity [specific activity to Metastin (1-54)]” value: 3.4 for the first, 1.1 for the second.

Compared with CNC(=N)NCCC[C@H](NC(=O)[C@H](CC(C)C)NC(=O)NNC(=O)[C@H](Cc1ccccc1)NC(=O)[C@@H](C)NC(=O)[C@H](CC(N)=O)NC(=O)[C@@H]1C[C@@H](O)CN1C(=O)[C@@H](Cc1ccc(O)cc1)NC(C)=O)C(=O)N[C@@H](Cc1c[nH]c2ccccc12)C(N)=O [Compound No. 815, Ac-D-Tyr-Hyp-Asn-D-Ala-Phe-AzaGly-Leu-Arg(Me)-Trp-NH2] (Ac-[dY][Hyp]N[dA]F[azaGly]L[Arg(Me)]W-NH2), CNC(=N)NCCC[C@H](NC(=O)[C@H](CC(C)C)NC(=O)NNC(=O)[C@H](Cc1ccccc1)NC(=O)[C@@H](NC(=O)[C@H](CC(N)=O)NC(=O)[C@H](C)NC(=O)[C@@H](Cc1ccc(O)cc1)NC(C)=O)[C@@H](C)O)C(=O)N[C@@H](Cc1c[nH]c2ccccc12)C(N)=O [Compound No. 742, Ac-D-Tyr-Ala-Asn-Thr-Phe-AzaGly-Leu-Arg(Me)-Trp-NH2] (Ac-[dY]ANTF[azaGly]L[Arg(Me)]W-NH2) is higher in “Specific Activity: intracellular Ca ion level-increasing activity [specific activity to Metastin (1-54)]” value: 0.5 for the first, 2.3 for the second.

Going from CNC(=N)NCCC[C@H](NC(=O)[C@H](CC(C)C)NC(=O)NNC(=O)[C@@H](NC(=O)[C@@H](NC(=O)[C@H](CC(N)=O)NC(=O)[C@@H]1C[C@@H](O)CN1C(=O)[C@@H](Cc1ccc(O)cc1)NC(C)=O)[C@@H](C)O)[C@@H](O)c1ccccc1)C(=O)N[C@@H](Cc1c[nH]c2ccccc12)C(N)=O [Compound No. 882, Ac-D-Tyr-Hyp-Asn-Thr-erythro-Ser(3Phenyl)-AzaGly-Leu-Arg(Me)-Trp-NH2] (Ac-[dY][Hyp]NT[Phe(βS-OH)][azaGly]L[Arg(Me)]W-NH2) to CNC(=N)NCCC[C@H](NC(=O)[C@H](CC(C)C)NC(=O)NNC(=O)[C@H](Cc1ccccc1)NC(=O)[C@H](NC(=O)[C@H](CC(N)=O)NC(=O)[C@@H]1C[C@@H](O)CN1C(=O)[C@@H](Cc1ccc(O)cc1)NC(C)=O)[C@H](C)O)C(=O)N[C@@H](Cc1c[nH]c2ccccc12)C(N)=O [Compound No. 846, Ac-D-Tyr-Hyp-Asn-D-Thr-Phe-AzaGly-Leu-Arg(Me)-Trp-NH2] (Ac-[dY][Hyp]N[dT]F[azaGly]L[Arg(Me)]W-NH2), the “Specific Activity: intracellular Ca ion level-increasing activity [specific activity to Metastin (1-54)]” value rises from 0.8 to 0.9.

Going from CNC(=N)NCCC[C@H](NC(=O)[C@H](CC(C)C)NC(=O)NNC(=O)[C@H](Cc1ccccc1)NC(=O)[C@@H](NC(=O)[C@H](CC(N)=O)NC(=O)[C@@H]1CCN1C(=O)[C@@H](Cc1ccc(O)cc1)NC(C)=O)[C@@H](C)O)C(=O)N[C@@H](Cc1c[nH]c2ccccc12)C(N)=O [Compound No. 720, Ac-D-Tyr-Aze(2)-Asn-Thr-Phe-AzaGly-Leu-Arg(Me)-Trp-NH2] (Ac-[dY][Aze]NTF[azaGly]L[Arg(Me)]W-NH2) to CNC(=N)NCCC[C@H](NC(=O)[C@H](CC(C)C)NC(=O)NNC(=O)[C@H](Cc1ccccc1)NC(=O)c1ccc(CN(Cc2ccccn2)Cc2ccccn2)cc1)C(=O)N[C@@H](Cc1c[nH]c2ccccc12)C(N)=O [Compound No. 801, 4-[Bis-(2-Pyridylmethyl)aminomethyl]benzoyl-Phe-AzaGly-Leu-Arg(Me)-Trp-NH2], the “Specific Activity: intracellular Ca ion level-increasing activity [specific activity to Metastin (1-54)]” value rises from 0.8 to 11.1.
